Data set [1] relates to recombinant NL4-3 virus (nef section replaced with Renilla luciferase gene) in MT-2 cells. Put plainly: HIV cell culture assay (antiviral activity, luciferase readout). It is filed as cell-based. Particulars: MT-2 cells infected for 4-5 days with recombinant NL4-3 luciferase virus. A digest of the protocol: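 NL4-3 reporter virus carrying Renilla luciferase in place of part of nef, produced in 293T cells, was used to infect MT-2 cells for 4-5 days with serial compound dilutions. Luciferase activity was read with a live-cell substrate; EC50 derived from the median effect equation.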

Data set [2] in a line: Compound cytotoxicity, XTT-based colorimetric assay. It is filed as cell-based. Particulars: human, uninfected MT2 cells. Summed up:
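CC50 from uninfected MT2 cells run under the antiviral-assay protocol without virus. Viability read on day 4 by XTT colorimetric assay.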
In general terms: Tetrazolium dyes change colour on reduction, which living cells bring about.

SMILES strings stand for the structures.

As usually defined, the EC50 is the concentration that produces a half-maximal response. What is called CC50 is the concentration at which the toxic effect on the cells reaches its halfway point. Low values mean harm at low concentration, high ones better tolerance by the cells. With `COc1ccc(-n2c([C@H](Cc3cc(F)cc(F)c3)NC(=O)Cn3nc(C(F)F)c4c3C(F)(F)[C@@H]3C[C@H]43)nc3ccccc3c2=O)cc1` [Example 10.31], the EC50 in data set [1] (Renilla, NL43, Table 1) was found to be 18 nM. For the same molecule, the CC50 at 4 days in data set [2] (Table 1, day 4, XTT) was greater than 10000 nM.

Take `Cn1ccc2nc([C@@H](Cc3cc(F)cc(F)c3)NC(=O)Cn3nc(C(F)F)c4c3C(F)(F)[C@@H]3C[C@H]43)c(-c3ccc(Cl)c4c(NS(C)(=O)=O)nn(C)c34)cc21` (single isomer, unassigned) [Example 121]: the concentration giving a half-maximal response (EC50) in data set [1] (Renilla, NL43, Table 1a) worked out at 171 nM. The molecule also registered a half-maximal cytotoxic concentration (CC50) at 4 days in data set [2] (Table 1a, day 4, XTT) greater than 10000 nM.

Regarding `CCOc1ccc2c(=O)n(-c3ccc(Cl)c4c(NS(C)(=O)=O)nn(C)c34)c([C@H](Cc3cc(F)cc(F)c3)NC(=O)Cn3nc(C(F)F)c4c3C(F)(F)[C@@H]3C[C@H]43)nc2n1` (mixture of isomers) [Example 60.2, N-[(1S)-1-[3-(4-chloro-3-methanesulfonamido-1-methyl-1H-indazol-7-yl)-7-ethoxy-4-oxo-3H,4H-pyrido[2,3-d]pyrimidin-2-yl]-2-(3,5-difluorophenyl)ethyl]-2-[(2S,4R)-9-(difluoromethyl)-5,5-difluoro-7,8-diazatricyclo[4.3.0.0^2,4]nona-1(6),8-dien-7-yl]acetamide], in data set [1] (Renilla, NL43, Table 1a), the EC50 is 0.0174 nM. In addition, the CC50 at 4 days in data set [2] (Table 1a, day 4, XTT) is greater than 1000 nM.

As to `NC(=O)c1cc(-c2cc3[nH]ncc3nc2[C@H](Cc2cc(F)cc(F)c2)NC(=O)Cn2nc(C(F)F)c3c2C(F)(F)[C@@H]2C[C@H]32)ccc1Cl` [Example 10.3, 2-Chloro-5-(5-((S)-1-(2-((3bS,4aR)-3-(difluoromethyl)-5,5-difluoro-3b,4,4a,5-tetrahydro-1H-cyclopropa[3,4]cyclopenta[1,2-c]pyrazol-1-yl)acetamido)-2-(3,5-difluorophenyl)ethyl)-1H-pyrazolo[4,3-b]pyridin-6-yl)benzamide], in data set [1] (Renilla, NL43, Table 1), the EC50 is 84 nM. In data set [2] (Table 1, day 4, XTT), this molecule displayed a CC50 at 4 days greater than 10000 nM.

With `O=C(Cn1nc(C(F)F)c2c1C(F)(F)[C@@H]1C[C@H]21)N[C@@H](Cc1cc(F)cc(F)c1)c1nc2cn[nH]c2cc1-c1ccc(F)c(C(=O)O)c1` [Example 10.25, 5-(5-((S)-1-(2-((3bS,4aR)-3-(difluoromethyl)-5,5-difluoro-3b,4,4a,5-tetrahydro-1H-cyclopropa[3,4]cyclopenta[1,2-c]pyrazol-1-yl)acetamido)-2-(3,5-difluorophenyl)ethyl)-1H-pyrazolo[4,3-b]pyridin-6-yl)-2-fluorobenzoic acid], in data set [1] (Renilla, NL43, Table 1), the EC50 came to 580 nM. Moreover, in data set [2] (Table 1, day 4, XTT), the CC50 at 4 days was greater than 10000 nM.

Regarding `COc1cc(F)c2c(=O)n(-c3ccc(Cl)c4c(NS(C)(=O)=O)nn(C)c34)c([C@H](Cc3cc(F)cc(F)c3)NC(=O)Cn3nc(C(F)F)c4c3C(F)(F)[C@@H]3C[C@H]43)nc2c1` (mixture of isomers) [Example 185, N—((S)-1-(3-(4-chloro-1-methyl-3-(methylsulfonamido)-1H-indazol-7-yl)-5-fluoro-7-methoxy-4-oxo-3,4-dihydroquinazolin-2-yl)-2-(3,5-difluorophenyl)ethyl)-2-((3bS,4aR)-3-(difluoromethyl)-5,5-difluoro-3b,4,4a,5-tetrahydro-1H-cyclopropa[3,4]cyclopenta[1,2-c]pyrazol-1-yl)acetamide], in data set [1] (Renilla, NL43, Table 1a), the EC50 was found to be 87.3 nM. In data set [2] (Table 1a, day 4, XTT), this molecule came in with a CC50 at 4 days greater than 1000 nM.

As for `O=C(Cn1nc(C(F)F)c2c1C(F)(F)[C@@H]1C[C@H]21)N[C@@H](Cc1cc(F)cc(F)c1)c1nc2ccccc2nc1-c1ccc(S(=O)(=O)N2CCOCC2)cc1` [Example 156, 2-((3bS,4aR)-3-(difluoromethyl)-5,5-difluoro-3b,4,4a,5-tetrahydro-1H-cyclopropa[3,4]cyclopenta[1,2-c]pyrazol-1-yl)-N—((S)-2-(3,5-difluorophenyl)-1-(3-(4-(morpholinosulfonyl)phenyl)quinoxalin-2-yl)ethyl)acetamide], the EC50 in data set [1] (Renilla, NL43, Table 1a) stood at 16.4 nM. In data set [2] (Table 1a, day 4, XTT), the CC50 at 4 days was greater than 10000 nM.

`Cn1nc(NS(C)(=O)=O)c2c(Cl)ccc(-n3c([C@H](Cc4cc(F)cc(F)c4)NC(=O)Cn4nc(C(F)F)c5c4C(F)(F)[C@@H]4C[C@H]54)nc4cc(C(C)(F)F)ccc4c3=O)c21` (single isomer, unassigned) [Example 196]: the EC50 in data set [1] (Renilla, NL43, Table 1a) was 0.081 nM. This molecule also gave a cytotoxic concentration (CC50) at 4 days in data set [2] (Table 1a, day 4, XTT) greater than 1000 nM.

Regarding `Cc1cccc2c(=O)n(-c3ccc(Cl)c4c(NS(C)(=O)=O)nn(C)c34)c([C@H](Cc3cc(F)cc(F)c3)NC(=O)Cn3nc(C(F)F)c4c3C(F)(F)[C@@H]3C[C@H]43)nc12` (single isomer, unassigned) [Example 97], in data set [1] (Table 1a), the 50% effective concentration (EC50) stood at 30.6 nM. This molecule showed a cytotoxic concentration (CC50) at 4 days in data set [2] (Table 1a, day 4, XTT) greater than 1000 nM.

Regarding `CC(C)(C)c1ccc2c(=O)n(-c3ccc(Cl)c4c(NS(=O)(=O)C5CC5)nn(CC(F)F)c34)c([C@H](Cc3cc(F)cc(F)c3)NC(=O)Cn3nc(C(F)F)c4c3C(F)(F)[C@@H]3C[C@H]43)nc2c1` [Example 218, N—((S)-1-(7-(tert-Butyl)-3-(4-chloro-3-(cyclopropanesulfonamido)-1-(2,2-difluoroethyl)-1H-indazol-7-yl)-4-oxo-3,4-dihydroquinazolin-2-yl)-2-(3,5-difluorophenyl)ethyl)-2-((3bS,4aR)-3-(difluoromethyl)-5,5-difluoro-3b,4,4a,5-tetrahydro-1H-cyclopropa[3,4]cyclopenta[1,2-c]pyrazol-1-yl)acetamide], the concentration for a half-maximal effect (EC50) in data set [1] (Renilla, NL43, Table 1a) stood at 0.73 nM. The half-maximal cytotoxic concentration (CC50) at 4 days in data set [2] (Table 1a, day 4, XTT) was greater than 1000 nM.

For the molecule `Cn1nc(NS(C)(=O)=O)c2c(Cl)ccc(-c3cc4ccccc4nc3C(Cc3cc(F)cc(F)c3)NC(=O)Cn3nc(C(F)F)c4c3C(F)(F)[C@@H]3C[C@H]43)c21` (single isomer, unassigned) [Example 8.1], the half-maximal effective concentration (EC50) in data set [1] (Table 1) turned out to be 0.2 nM. In addition, in data set [2] (Table 1, day 4, XTT), the CC50 at 4 days was greater than 10000 nM.

Take `Cn1nc(NS(C)(=O)=O)c2c(Cl)ccc(-n3c(C(Cc4cc(F)cc(F)c4)NC(=O)Cn4nc(C(F)F)c5c4C(F)(F)C4CC54)nc4nc(Cl)ccc4c3=O)c21` (stereo in doubt) [Example 12.1, N—((S)-1-(7-chloro-3-(4-chloro-1-methyl-3-(methylsulfonamido)-1H-indazol-7-yl)-4-oxo-3,4-dihydropyrido[2,3-d]pyrimidin-2-yl)-2-(3,5-difluorophenyl)ethyl)-2-((3bS,4aR)-3-(difluoromethyl)-5,5-difluoro-3b,4,4a,5-tetrahydro-1H-cyclopropa[3,4]cyclopenta[1,2-c]pyrazol-1-yl)acetamide]: the EC50 in data set [1] (Renilla, NL43, Table 1) was found to be 4310 nM. In data set [2] (Table 1, day 4, XTT), this molecule returned a CC50 at 4 days greater than 10000 nM.

`Cn1nc(NS(C)(=O)=O)c2c(Cl)ccc(-n3c([C@H](Cc4cc(F)cc(F)c4)NC(=O)Cn4nc(C(F)F)c5c4C(F)(F)[C@@H]4C[C@H]54)nc4cc(Cl)cc(Cl)c4c3=O)c21` (single isomer, unassigned) [Example 179]: the EC50 in data set [1] (Table 1a) came to 0.077 nM. The cytotoxic concentration (CC50) at 4 days in data set [2] (Table 1a, day 4, XTT) was greater than 1000 nM.

With `Cc1c(F)ccc2c(=O)n(-c3ccc(Cl)c4c(NS(C)(=O)=O)nn(C)c34)c([C@H](Cc3cc(F)cc(F)c3)NC(=O)Cn3nc(C(F)F)c4c3C(F)(F)[C@@H]3C[C@H]43)nc12` (single isomer, unassigned) [Example 107], in data set [1] (Table 1a), the concentration for a half-maximal effect (EC50) came to 27.3 nM. Besides, the 50% cytotoxic concentration (CC50) at 4 days in data set [2] (Table 1a, day 4, XTT) was greater than 1000 nM.

Regarding `CC(C)c1ccc(-c2cc3[nH]ccc3nc2[C@@H](Cc2cc(F)cc(F)c2)NC(=O)Cn2nc(C(F)F)c3c2C(F)(F)[C@@H]2C[C@H]32)cn1` [Example 85, 2-((3bS,4aR)-3-(difluoromethyl)-5,5-difluoro-3b,4,4a,5-tetrahydro-1H-cyclopropa[3,4]cyclopenta[1,2-c]pyrazol-1-yl)-N—((R)-2-(3,5-difluorophenyl)-1-(6-(6-isopropylpyridin-3-yl)-1H-pyrrolo[3,2-b]pyridin-5-yl)ethyl)acetamide], in data set [1] (Renilla, NL43, Table 1a), the EC50 was determined as 299 nM. The same molecule came in with a CC50 at 4 days in data set [2] (Table 1a, day 4, XTT) greater than 3160 nM.

Consider `O=C(Cn1nc(C(F)F)c2c1C(F)(F)[C@@H]1C[C@H]21)N[C@@H](Cc1cc(F)cc(F)c1)c1nc2ncccc2c(=O)n1-c1ccc(OC(F)F)cc1` [Example 30, N-[(1S)-1-{3-[4-(difluoromethoxy)phenyl]-4-oxo-3H,4H-pyrido[2,3-d]pyrimidin-2-yl}-2-(3,5-difluorophenyl)ethyl]-2-[(2S,4R)-9-(difluoromethyl)-5,5-difluoro-7,8-diazatricyclo[4.3.0.0^2,4]nona-1(6),8-dien-7-yl]acetamide], for which the EC50 in data set [1] (Renilla, NL43, Table 1a) worked out at 5.03 nM. In data set [2] (Table 1a, day 4, XTT), this molecule had a CC50 at 4 days of 3160 nM.

As to `Cn1nc(NS(C)(=O)=O)c2c(Cl)ccc(-n3c([C@H](Cc4cc(F)cc(F)c4)NC(=O)Cc4c[nH]c5ccc(O)cc45)nc4cc(CS(C)(=O)=O)ccc4c3=O)c21` [Example 203, (S)—N-(1-(3-(4-chloro-1-methyl-3-(methylsulfonamido)-1H-indazol-7-yl)-7-((methylsulfonyl)methyl)-4-oxo-3,4-dihydroquinazolin-2-yl)-2-(3,5-difluorophenyl)ethyl)-2-(5-hydroxy-1H-indol-3-yl)acetamide], the EC50 in data set [1] (Table 1a) came to 166 nM. The molecule also gave a CC50 at 4 days in data set [2] (Table 1a, day 4, XTT) greater than 1000 nM.

As for `Cn1nc(NS(C)(=O)=O)c2c(Cl)ccc(-n3c([C@H](Cc4cc(F)cc(F)c4)NC(=O)Cn4nc(C(F)F)c5c4C(F)(F)[C@@H]4C[C@H]54)nc4ccccc4c3=O)c21` (single isomer, unassigned) [Example 16], in data set [1] (Renilla, NL43, Table 1), the EC50 amounted to 49 nM. The 50% cytotoxic concentration (CC50) at 4 days in data set [2] (Table 1, day 4, XTT) was greater than 10000 nM.

On to `COc1ccc(-n2c([C@H](Cc3cc(F)cc(F)c3)NC(=O)Cn3nc(C(F)F)c4c3C(F)(F)[C@@H]3C[C@H]43)nc3ncccc3c2=O)cc1` [Example 9.1, 2-((3bS,4aR)-3-(difluoromethyl)-5,5-difluoro-3b,4,4a,5-tetrahydro-1H-cyclopropa[3,4]cyclopenta[1,2-c]pyrazol-1-yl)-N—((S)-2-(3,5-difluorophenyl)-1-(3-(4-methoxyphenyl)-4-oxo-3,4-dihydropyrido[2,3-d]pyrimidin-2-yl)ethyl)acetamide], for which the concentration for a half-maximal effect (EC50) in data set [1] (Renilla, NL43, Table 1) was 6.1 nM. The CC50 at 4 days in data set [2] (Table 1, day 4, XTT) turned out to be 8100 nM.

The values are drawn from patent US10954252B1, “Inhibitors of human immunodeficiency virus replication” (ViiV HEALTHCARE UK (NO.5) LIMITED, priority 2017, dated 2021).
